{"source": "patent US7887848B2", "about": "“Nutraceutical treatments for diabetic and non-diabetic wound healing” (Interhealth Nutraceuticals, Inc., priority 2006, dated 2011)", "origin": "cited, not measured here", "data": [{"smiles": "OO", "note": "[H2O2]", "values": [{"measurement": "beneficial effect on wounds", "setting": "H2O2 at strength of 3%", "result": "no beneficial effect"}, {"measurement": "dermal wound healing", "setting": "topical H2O2 (Roy et al. 2006)", "result": "facilitates dermal wound healing"}]}]}
